Assay results from patent US20180002288A1, “USE OF PICOLINAMIDES AS FUNGICIDES” (DOW AGROSCIENCES LLC, priority 2014, published 2018).
Read-outs that look alike come from different tables or passages of the source.

Assays:
Zymoseptoria tritici = assay: Leaf Blotch of Wheat fungicidal activity (SEPTTR); assay type: in vivo; details: for pest or weed control at 121.5 g/ha: Low Volume Cereal Activity at 121.5 g/Ha; for pest or weed control at 100 ppm: wheat, high volume
Protocol: (§1) All fungicides were evaluated using the aforementioned method for their activity vs. all target diseases, unless stated otherwise. Wheat leaf blotch and brown rust activity were also evaluated using track spray applications, in which case the fungicides were formulated as EC formulations, containing 0.1% Trycol 5941 in the spray solutions. Wheat plants (variety Yuma) were grown from seed in a greenhouse in 50% mineral soil/50% soil-less Metro mix until the first leaf was fully emerged, with 7-10 seedlings per pot. These plants were inoculated with an aqueous spore suspension of Zymoseptoria tritici either prior to or after fungicide treatments. After inoculation the plants were kept in 100% relative humidity (one day in a dark dew chamber followed by two to three days in a lighted dew chamber at 20° C.) to permit spores to germinate and infect the leaf. The plants were then transferred to a greenhouse set at 20° C. for disease to develop. When disease symptoms were fully expressed on the 1st leaves of untreated plants, infection levels were assessed on a scale of 0 to 100 percent disease severity. Percent disease control was calculated using the ratio of disease severity on treated plants relative to untreated plants.

Puccinia triticina = assay: Wheat Brown Rust fungicidal activity (PUCCRT); assay type: in vivo; details: for pest or weed control at 121.5 g/ha: Low Volume Cereal Activity at 121.5 g/Ha; for pest or weed control at 100 ppm: wheat, high volume
Protocol: as §1, with “plants. Wheat plants (variety Yuma) were grown from seed in a greenhouse in 50% mineral soil/50% soil-less Metro mix until the first leaf was fully emerged, with 7-10 seedlings per pot. These plants were inoculated with an aqueous spore suspension of Puccinia triticina either prior to or after fungicide treatments. […] The plants were then transferred to a greenhouse set at 24° C. for disease to develop. Fungicide formulation, application and disease assessment followed the procedures as described in the Example A.” for “plants.”

[1] = 24 h, 1 Day Protectant, read-out: SEPTTR 1DP (Wheat Leaf Blotch, 1 Day Protectant)
[2] = 72 h, 3 Day Curative, read-out: SEPTTR 3DC (Wheat Leaf Blotch, 3 Day Curative)
[3] = 24 h, 1 Day Protectant, read-out: PUCCRT 1DP (Wheat Brown Rust, 1 Day Protectant)
[4] = 72 h, 3 Day Curative, read-out: PUCCRT 3DC (Wheat Brown Rust, 3 Day Curative)
[5] = 24 h, 1 Day Protectant, read-out: SEPTTR 1DP % Control rating
[6] = 72 h, 3 Day Curative, read-out: SEPTTR 3DC % Control rating
[7] = 24 h, 1 Day Protectant, read-out: PUCCRT 1DP % Control rating
[8] = 72 h, 3 Day Curative, read-out: PUCCRT 3DC % Control rating

SMILES	pest or weed control at 121.5 g/ha (Zymoseptoria tritici; [1]) [%]	pest or weed control at 121.5 g/ha (Zymoseptoria tritici; [2]) [%]	pest or weed control at 121.5 g/ha (Puccinia triticina; [3]) [%]	pest or weed control at 121.5 g/ha (Puccinia triticina; [4]) [%]	pest or weed control at 100 ppm (Zymoseptoria tritici; [5]) [%]	pest or weed control at 100 ppm (Zymoseptoria tritici; [6]) [%]	pest or weed control at 100 ppm (Puccinia triticina; [7]) [%]	pest or weed control at 100 ppm (Puccinia triticina; [8]) [%]
COc1ccnc(C(=O)N[C@@H](C)C(=O)O[C@@H](C)[C@H](Oc2ccc(C)cc2Cl)c2ccc(F)cc2)c1OCOC(C)=O [Example 245]	> 80	> 80	> 80	< 80	–	–	–	–
COc1ccnc(C(=O)N[C@@H](C)C(=O)O[C@@H](C)[C@@H](Oc2ccccc2)c2cccnc2)c1OC(C)=O [Example 211]	< 0	< 80	< 0	< 80	–	–	–	–
COc1ccnc(C(=O)N[C@@H](C)C(=O)O[C@@H](C)[C@H](Oc2ccccc2Cl)c2ccccc2)c1O [Example 117]	–	–	–	–	> 80	> 80	> 80	> 80
COc1cccc([C@@H](Oc2ccccc2)[C@H](C)OC(=O)[C@H](C)NC(=O)c2nccc(OC)c2OCOC(C)=O)c1 [Example 258]	> 80	> 80	> 80	> 80	–	–	–	–
COc1ccnc(C(=O)N[C@@H](C)C(=O)O[C@@H](C)[C@H](Oc2ccccc2)c2ccc(F)cc2OCC2CC2)c1O [Example 175]	–	–	–	–	> 80	< 80	> 80	> 80
COc1ccnc(C(=O)N[C@@H](C)C(=O)O[C@@H](C)[C@H](OCC2CC2)c2cccc(-c3ccccc3)c2)c1OC(C)=O [Example 222]	> 80	> 80	> 80	> 80	–	–	–	–
COc1ccnc(C(=O)N[C@@H](C)C(=O)O[C@@H](C)[C@H](Oc2ccccc2)c2cccc(-c3ccccc3)c2)c1O [Example 145]	–	–	–	–	> 80	> 80	> 80	< 80
COc1ccnc(C(=O)N[C@@H](C)C(=O)O[C@@H](C)[C@H](Oc2ccccc2)c2nccs2)c1O [Example 132]	–	–	–	–	< 80	< 0	> 80	< 80
COc1ccnc(C(=O)N[C@@H](C)C(=O)O[C@@H](C)[C@H](OCC2CC2)c2cccc(-c3ccccc3)c2)c1O [Example 131]	–	–	–	–	< 0	< 80	< 80	< 80
COc1ccnc(C(=O)N[C@@H](C)C(=O)O[C@@H](C)[C@H](Oc2ccc(Cl)cc2Cl)c2ccccc2)c1OC(C)=O [Example 200]	> 80	> 80	> 80	< 80	–	–	–	–
COc1ccnc(C(=O)N[C@@H](C)C(=O)O[C@@H](C)[C@H](Oc2cc(F)ccc2F)c2ccccc2)c1O [Example 121]	–	–	–	–	< 80	> 80	> 80	< 80
COc1ccnc(C(=O)N[C@@H](C)C(=O)O[C@@H](C)[C@@H](Oc2ccccc2)c2cccs2)c1O [Example 129]	–	–	–	–	> 80	< 80	< 80	< 80
COc1ccnc(C(=O)N[C@@H](C)C(=O)O[C@@H](C)[C@H](Oc2cccc(Cl)c2)c2ccccc2)c1OC(C)=O [Example 203]	> 80	> 80	> 80	< 80	–	–	–	–
COc1ccnc(C(=O)N[C@@H](C)C(=O)O[C@@H](C)[C@H](Oc2ccccc2)c2ccc3ccccc3c2)c1O [Example 166]	–	–	–	–	> 80	> 80	> 80	> 80
COc1ccnc(C(=O)N[C@@H](C)C(=O)O[C@@H](C)[C@@H](OCC2CC2)c2ccccc2)c1OC(C)=O [Example 232]	< 0	> 80	> 80	> 80	–	–	–	–
COc1ccnc(C(=O)N[C@@H](C)C(=O)O[C@@H](C)[C@H](Oc2cc(F)ccc2F)c2ccccc2)c1OC(C)=O [Example 192]	> 80	< 80	> 80	> 80	–	–	–	–
COc1ccnc(C(=O)N[C@@H](C)C(=O)O[C@@H](C)C(Oc2ccccc2)c2nccs2)c1OCOC(C)=O (stereo partly shown) [Example 213]	< 0	< 80	> 80	> 80	–	–	–	–
COc1cc(F)ccc1[C@@H](OC(=O)C1CC1)[C@H](C)OC(=O)[C@H](C)NC(=O)c1nccc(OC)c1O [Example 291]	–	–	–	–	< 0	> 80	< 80	< 80
CCCO[C@@H](c1ccccc1)[C@H](C)OC(=O)[C@H](C)NC(=O)c1nccc(OC)c1O [Example 138]	–	–	–	–	< 80	< 80	> 80	> 80
COc1ccnc(C(=O)N[C@@H](C)C(=O)O[C@@H](C)[C@@H](Oc2ccccc2)c2ccccc2)c1OCOC(C)=O [Example 219]	> 80	> 80	> 80	> 80	–	–	–	–
COc1ccnc(C(=O)N[C@@H](C)C(=O)O[C@@H](C)[C@H](Oc2ccccc2)c2ccc(-c3ccccc3)cc2)c1OCOC(C)=O [Example 239]	> 80	> 80	> 80	< 80	–	–	–	–
C=CCOc1cc(F)ccc1[C@@H](Oc1ccccc1)[C@H](C)OC(=O)[C@H](C)NC(=O)c1nccc(OC)c1O [Example 167]	–	–	–	–	> 80	> 80	> 80	> 80
COc1cc(C)ccc1[C@@H](Oc1ccc(C)cc1)[C@H](C)OC(=O)[C@H](C)NC(=O)c1nccc(OC)c1O [Example 177]	–	–	–	–	> 80	> 80	< 80	< 0
COc1ccnc(C(=O)N[C@@H](C)C(=O)O[C@@H](C)[C@@H](OCC(C)C)c2ccccc2)c1O [Example 136]	–	–	–	–	< 80	< 0	< 0	< 80
COc1ccnc(C(=O)N[C@@H](C)C(=O)O[C@@H](C)[C@H](Oc2ccc(C)cc2Cl)c2ccccc2)c1OC(C)=O [Example 243]	> 80	> 80	> 80	< 80	–	–	–	–
COc1ccnc(C(=O)N[C@@H](C)C(=O)O[C@@H](C)[C@@H](Oc2ccccc2)c2ccccc2)c1OC(=O)C(C)C [Example 218]	> 80	< 80	< 0	< 0	–	–	–	–
COc1ccnc(C(=O)N[C@@H](C)C(=O)O[C@@H](C)[C@H](Oc2ccc(C(F)(F)F)cc2)c2ccccc2)c1OCOC(C)=O [Example 195]	> 80	> 80	> 80	< 80	–	–	–	–
COc1ccnc(C(=O)N[C@@H](C)C(=O)O[C@@H](C)[C@@H](OCC(C)C)c2ccccc2)c1OC(C)=O [Example 224]	< 80	< 80	> 80	> 80	–	–	–	–
